From publication PMC11054143, “^68Ga-DOTA-D-Alanine-BoroPro Radiotracer for Imaging of the Fibroblast Activation Protein in Malignant and Non-Malignant Diseases” (Pharmaceutics, 2024)

Target: T1, fibroblast activation protein (FAP) (Homo sapiens, UniProt Q12884)
T1 sequence (Q12884 1-760): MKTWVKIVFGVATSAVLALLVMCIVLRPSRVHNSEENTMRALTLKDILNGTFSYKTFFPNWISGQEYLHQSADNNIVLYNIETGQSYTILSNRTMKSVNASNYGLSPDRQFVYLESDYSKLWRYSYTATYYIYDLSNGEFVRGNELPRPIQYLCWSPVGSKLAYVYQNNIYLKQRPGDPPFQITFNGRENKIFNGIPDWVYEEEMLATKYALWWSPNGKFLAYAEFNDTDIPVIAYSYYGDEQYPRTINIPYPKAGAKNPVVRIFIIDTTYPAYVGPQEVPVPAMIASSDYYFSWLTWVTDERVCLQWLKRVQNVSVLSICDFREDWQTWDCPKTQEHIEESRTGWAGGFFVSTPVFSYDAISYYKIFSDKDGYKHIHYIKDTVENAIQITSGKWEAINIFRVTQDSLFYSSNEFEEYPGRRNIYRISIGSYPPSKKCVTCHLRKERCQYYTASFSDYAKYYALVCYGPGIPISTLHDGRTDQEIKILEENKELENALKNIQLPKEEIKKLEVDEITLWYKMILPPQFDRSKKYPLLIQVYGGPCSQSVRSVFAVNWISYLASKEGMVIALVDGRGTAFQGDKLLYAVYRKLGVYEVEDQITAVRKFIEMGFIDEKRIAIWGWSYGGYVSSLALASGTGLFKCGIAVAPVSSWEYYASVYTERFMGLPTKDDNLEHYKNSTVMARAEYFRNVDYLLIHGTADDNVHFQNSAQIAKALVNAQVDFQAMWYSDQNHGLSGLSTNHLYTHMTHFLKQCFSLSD
Test: unlabelled competitor ([…] concentrations) displacing […]-iFAP from HCT116 cells
Assay type: cell-based

## C[C@H](NC(=O)c1ccc(NNC(=S)Nc2ccc(CC3CN(CC(=O)O)CCN(CC(=O)O)CCN(CC(=O)O)CCN3CC(=O)O)cc2)nc1)C(=O)N1CCC[C@@H]1B(O)O (stereo partly drawn) [DOTA-iFAP, 2,2′,2″,2‴-(2-(4-(2-(5-(((S)-1-((S)-2-boronopyrrolidin-1-yl)-1-oxopropan-2-yl)carbamoyl)pyridin-2-yl)hydrazine-1-carbothioamido)benzyl)-1,4,7,10-tetraazacyclododecane-1,4,7,10-tetrayl)tetraacetic acid]
  IC50: 0.57 nM
